22 compounds from ChEMBL document CHEMBL4387784, “Triterpenoids from Ganoderma gibbosum: A Class of Sensitizers of FLC-Resistant Candida albicans to Fluconazole” (2019) can be followed below.

Molecules are shown by their SMILES. Activity calls are given as the source filed them. The rule behind the calls is not given here.

One may read the MIC50 as an inhibitory concentration at the 50% level, which refers to growth in some studies and to a panel of isolates in others.

Assay [1] concerns Candida albicans. In words: Chemo-sensitization of fluconazole antifungal activity against FLC-resistant Candida albicans assessed as inhibition of microbial growth at 200 ug/mL in presence of fluconazole incubated for 24 hrs by microbroth dilution assay relative to untreated control. The class given is functional, organism-based. (Dilution methods test growth across graded concentrations, often in twofold steps.)

In assay [2] the test system is Candida albicans. In words: Chemo-sensitization of fluconazole antifungal activity against FLC-resistant Candida albicans assessed as inhibition of microbial growth in presence of fluconazole at 1:1 ratio of compound to fluconazole incubated for 24 hrs by microbroth dilution assay relative to untreated control. The class given is functional.
In assay [3] the test system is Candida albicans. Briefly: Antifungal activity against normal Candida albicans assessed as inhibition of microbial growth at 200 ug/mL incubated for 24 hrs by microbroth dilution assay relative to untreated control. The conditions noted are these: read-out: GI. The class given is functional.
For assay [4], the system named is Candida albicans. Briefly: Antifungal activity against FLC-resistant Candida albicans assessed as inhibition of microbial growth at 200 ug/mL incubated for 24 hrs by microbroth dilution assay relative to untreated control. The class given is functional. The following applies: read-out: GI.
Assay [5] relates to Candida albicans. In words: Antifungal activity against FLC-resistant Candida albicans assessed as inhibition of microbial growth incubated for 24 hrs by microbroth dilution assay relative to untreated control. The class given is functional.

On to `C=C(C)[C@@H]1C[C@H]2O[C@@]23C(=CC(=O)[C@]2(C)[C@@H](/C(C)=C/[C@H]4C[C@H](C)C(=O)O4)C[C@H](O)[C@]23C)[C@@]1(C)CCC(=O)O`, for which, in the assay with Candida albicans [1], the “growth inhibition (GI)” value is “Active”. In the assay with Candida albicans [2], the MIC50 was 29.4 µg/mL. In addition, in the assay with Candida albicans [3], the inhibition of growth at 200 µg/mL is below 50%.
For `C/C(=C\[C@@H]1C[C@H](C)C(=O)O1)[C@H]1C[C@H](O)[C@]2(C)[C@]1(C)C(=O)C=C1[C@@]3(C)CCC(=O)C(C)(C)[C@@H]3C[C@H]3O[C@@]132`, the “growth inhibition (GI)” value in the assay with Candida albicans [1] was “Active”. In addition, the MIC50 with Candida albicans [2] is 4.7 µg/mL. In the assay with Candida albicans [3], the inhibition of growth at 200 µg/mL is below 50%.
Take `C/C(=C\[C@@H]1C[C@H](C)C(=O)O1)[C@H]1C[C@@H](O)[C@]2(C)[C@]1(C)C(=O)C=C1[C@@]3(C)CCC(=O)C(C)(C)[C@@H]3C[C@H]3O[C@@]132`: the “growth inhibition (GI)” value in the assay on Candida albicans [1] was “Active”. Further, the MIC50 in the assay on Candida albicans [2] was found to be 37.8 µg/mL. Also, the inhibition of growth at 200 µg/mL in the assay with Candida albicans [3] was below 50%.
For `C/C(=C\C(=O)C[C@H](C)C(=O)O)[C@H]1C[C@@H](O)[C@@]2(C)C3=C(C[C@H](O)[C@]12C)[C@@]1(C)CCC(=O)C(C)(C)[C@@H]1CC3=O`, the “growth inhibition (GI)” value in the assay on Candida albicans [1] was “Active”. The inhibition of growth at 200 µg/mL with Candida albicans [3] is below 50%.
Regarding `C/C(=C\C(=O)C[C@H](C)C(=O)O)[C@H]1C[C@H](O)[C@@]2(C)C3=C(C=C[C@]12C)[C@@]1(C)CCC(=O)C(C)(C)[C@@H]1CC3=O`, the “growth inhibition (GI)” value in the assay with Candida albicans [1] was “Active”. Moreover, the MIC50 in the assay with Candida albicans [2] came to 5.1 µg/mL. Besides, the inhibition of growth at 200 µg/mL with Candida albicans [3] was below 50%.
For `C/C(=C\[C@H]1C[C@H](C)C(=O)O1)[C@H]1C[C@@H](O)[C@]2(C)[C@]1(C)C(=O)C=C1[C@@]3(C)CCC(=O)C(C)(C)[C@@H]3C[C@H]3O[C@@]132` the same measures were “Active”, 5 µg/mL and below 50%.
`C/C(=C\C(=O)C[C@H](C)C(=O)O)[C@H]1C[C@H](O)[C@@]2(C)[C@]34O[C@H]3C[C@H]3C(C)(C)C(=O)CC[C@]3(C)C4=CC(=O)[C@]12C`: the “growth inhibition (GI)” value in the assay with Candida albicans [1] is “Active”. Moreover, the inhibition of growth at 200 µg/mL in the assay with Candida albicans [3] was below 50%.
Take `C=C(C)[C@@H]1C[C@H]2O[C@@]23C(=CC(=O)[C@]2(C)[C@@H](/C(C)=C/[C@H]4C[C@H](C)C(=O)O4)C[C@@H](O)[C@]23C)[C@@]1(C)CCC(=O)O`: the “growth inhibition (GI)” value in the assay on Candida albicans [1] was “Active”. The MIC50 in the assay on Candida albicans [2] worked out at 25.8 µg/mL. Besides, the inhibition of growth at 200 µg/mL in the assay on Candida albicans [3] was below 50%.
For `C[C@@H](CC(=O)C[C@](C)(O)C1=CC(=O)[C@]2(C)[C@]1(C)C(=O)C=C1[C@]23O[C@H]3C[C@H]2C(C)(C)[C@@H](O)CC[C@]12C)C(=O)O` the same measures were “Active”, 28.3 µg/mL and below 50%.
For the compound `C/C(=C\C(=O)C[C@H](C)C(=O)O)[C@H]1C[C@@H](O)[C@@]2(C)C3=C(C=C[C@]12C)[C@@]1(C)CCC(=O)C(C)(C)[C@@H]1CC3=O`, in the assay on Candida albicans [1], the “growth inhibition (GI)” value is “Active”. Also, in the assay with Candida albicans [3], the inhibition of growth at 200 µg/mL was below 50%.
For the compound `C/C(=C\C(=O)C[C@H](C)C(=O)O)[C@H]1C[C@H](O)[C@@]2(C)[C@]34O[C@@H]3C[C@H]3C(C)(C)C(=O)CC[C@]3(C)C4=CC(=O)[C@]12C`, the “growth inhibition (GI)” value in the assay on Candida albicans [1] was “Active”. Also, the MIC50 in the assay with Candida albicans [2] was 7.3 µg/mL. In addition, the inhibition of growth at 200 µg/mL in the assay with Candida albicans [4] was below 50%; in the assay on Candida albicans [3], 55%.
For the compound `C[C@@H](CC(=O)C[C@](C)(O)C1=C[C@@H](O)[C@]2(C)[C@]1(C)C(=O)C=C1[C@]23O[C@H]3C[C@H]2C(C)(C)[C@@H](O)CC[C@]12C)C(=O)O`, the “growth inhibition (GI)” value in the assay on Candida albicans [1] was “Active”. The MIC50 in the assay with Candida albicans [2] came to 8.8 µg/mL. Also, in the assay on Candida albicans [3], the inhibition of growth at 200 µg/mL was below 50%.
The corresponding values for `C[C@@H](CC(=O)C[C@](C)(O)C1=CC(=O)[C@]2(C)[C@]1(C)C(=O)C=C1[C@]23O[C@H]3C[C@H]2C(C)(C)C(=O)CC[C@]12C)C(=O)O` are “Active”, 3.8 µg/mL and below 50%.
The corresponding values for `C/C(=C\[C@H]1C[C@H](C)C(=O)O1)[C@H]1C[C@H](O)[C@]2(C)[C@]1(C)C(=O)C=C1[C@@]3(C)CCC(=O)C(C)(C)[C@@H]3C[C@H]3O[C@@]132` are “Active”, 47.9 µg/mL and below 50%.
As for `OC(Cn1cncn1)(Cn1cncn1)c1ccc(F)cc1F` [FLUCONAZOLE], in the assay on Candida albicans [5], the MIC50 turned out to be 6.3 µg/mL.
On to `C[C@@H](CC(=O)C[C@](C)(O)C1=C[C@H](O)[C@]2(C)[C@]1(C)C(=O)C=C1[C@]23O[C@H]3C[C@H]2C(C)(C)C(=O)CC[C@]12C)C(=O)O`, for which the “growth inhibition (GI)” value with Candida albicans [1] was “Active”. Besides, the MIC50 with Candida albicans [2] was found to be 37.7 µg/mL. Besides, the inhibition of growth at 200 µg/mL in the assay on Candida albicans [3] is below 50%.
`C/C(=C\C(=O)C[C@H](C)C(=O)O)[C@H]1C[C@@H](O)[C@@]2(C)C3=C([C@@H](O)[C@H](O)[C@]12C)[C@@]1(C)CCC(=O)C(C)(C)[C@@H]1CC3=O`: the “growth inhibition (GI)” value in the assay with Candida albicans [1] is “Active”. The inhibition of growth at 200 µg/mL with Candida albicans [3] is below 50%.
With `C/C(=C\C(=O)C[C@H](C)C(=O)O)[C@H]1C[C@@H](O)[C@@]2(C)C3=C(C(=O)[C@H](O)[C@]12C)[C@@]1(C)CCC(=O)C(C)(C)[C@@H]1CC3=O`, in the assay with Candida albicans [1], the “growth inhibition (GI)” value is “Active”. Moreover, the MIC50 in the assay with Candida albicans [2] came out at 4.4 µg/mL. Besides, the inhibition of growth at 200 µg/mL in the assay with Candida albicans [3] is below 50%.
Regarding `C=C(C)[C@@H]1C[C@H]2O[C@@]23C(=CC(=O)[C@]2(C)[C@@H](/C(C)=C/[C@H]4C[C@H](C)C(=O)O4)C[C@H](O)[C@]23C)[C@@]1(C)CCC(=O)OC`, in the assay on Candida albicans [1], the “growth inhibition (GI)” value is “Active”. The MIC50 in the assay with Candida albicans [2] worked out at 129 µg/mL. Further, the inhibition of growth at 200 µg/mL in the assay on Candida albicans [3] was below 50%.
For `C[C@H]1C[C@@]2(C[C@](C)(O)C3=C[C@@H](O)[C@@]4(C)C5=C(C(=O)[C@H](O2)[C@]34C)[C@@]2(C)CCC(=O)C(C)(C)[C@@H]2CC5=O)OC1=O` the same measures were “Active”, 78 µg/mL and below 50%.
Consider `C/C(=C\C(=O)C[C@H](C)C(=O)O)[C@H]1C[C@H](O)[C@@]2(C)C3=CC[C@H]4C(C)(C)C(=O)CC[C@]4(C)C3=CC(=O)[C@]12C`, for which the “growth inhibition (GI)” value in the assay on Candida albicans [1] is “Active”. For the same compound, in the assay with Candida albicans [2], the MIC50 came out at 70 µg/mL. Further, the inhibition of growth at 200 µg/mL in the assay on Candida albicans [3] is below 50%.
As for `C[C@@H](CC(=O)C[C@](C)(O)C1=C[C@@H](O)[C@]2(C)[C@]1(C)C(=O)C=C1[C@]23O[C@H]3C[C@H]2C(C)(C)C(=O)CC[C@]12C)C(=O)O`, the “growth inhibition (GI)” value in the assay on Candida albicans [1] is “Active”. Besides, the MIC50 with Candida albicans [2] is 29 µg/mL. Further, the inhibition of growth at 200 µg/mL in the assay with Candida albicans [3] was below 50%.
